Measurements taken from the supplement of paper PMC9663587.

Columns and labels:
THZ1 = compound: CN(C)C/C=C/C(=O)Nc1ccc(C(=O)Nc2cccc(Nc3ncc(Cl)c(-c4c[nH]c5ccccc45)n3)c2)cc1 [THZ1]
LEE011/Ribociclib = compound: CN(C)C(=O)c1cc2cnc(Nc3ccc(N4CCNCC4)cn3)nc2n1C1CCCC1 [LEE011/Ribociclib]
Neratinib/HKI272 = compound: CCOc1cc2ncc(C#N)c(Nc3ccc(OCc4ccccn4)c(Cl)c3)c2cc1NC(=O)/C=C/CN(C)C [Neratinib/HKI272]
Dasatinib = compound: Cc1nc(Nc2ncc(C(=O)Nc3c(C)cccc3Cl)s2)cc(N2CCN(CCO)CC2)n1 [Dasatinib]
Alpelisib/BYL719 = compound: Cc1nc(NC(=O)N2CCC[C@H]2C(N)=O)sc1-c1ccnc(C(C)(C)C(F)(F)F)c1 [Alpelisib/BYL719]
[1] = compound: CCCCOc1c(C(=O)c2c(F)cc(C)cc2F)c[nH]c2nncc1-2
Vorinostat = compound: O=C(CCCCCCC(=O)Nc1ccccc1)NO [Vorinostat]
AZD7762 = compound: NC(=O)Nc1cc(-c2cccc(F)c2)sc1C(=O)N[C@H]1CCCNC1 [AZD7762]
[2] = compound: CCN1CCN(Cc2ccc(Nc3ncc(F)c(-c4cc(F)c5nc(C)n(C(C)C)c5c4)n3)nc2)CC1
[3] = compound: CC(=O)c1c(C)c2cnc(Nc3ccc(N4CCNCC4)cn3)nc2n(C2CCCC2)c1=O
THZ-P1-2 = compound: CN(C)C/C=C/C(=O)NC1=CC=C(C=C1)C(=O)NC2=CC=CC(=C2)NC3=NC=NC(=C3)C4=CNC5=CC=CC=C54 [THZ-P1-2]
AZD2014 = compound: CNC(=O)c1cccc(-c2ccc3c(N4CCOC[C@@H]4C)nc(N4CCOC[C@@H]4C)nc3n2)c1 [AZD2014]
Taselisib/GDC0032 = compound: Cc1nc(-c2cn3c(n2)-c2ccc(-c4cnn(C(C)(C)C(N)=O)c4)cc2OCC3)n(C(C)C)n1 [Taselisib/GDC0032]
[4] = compound: CCC1=CN=CN=C1N2CCN(CC2)CC3=NC4=C(N3)C=C(C=C4)C(F)(F)F
Torin2 = compound: C1=CC(=CC(=C1)N2C(=O)C=CC3=CN=C4C=CC(=CC4=C32)C5=CN=C(C=C5)N)C(F)(F)F [Torin2]
R0-3306 = compound: C1=CC2=C(C=CC(=C2)C=C3C(=O)NC(=NCC4=CC=CS4)S3)N=C1 [R0-3306]
Olaparib/AZD2281 = compound: O=C(c1cc(Cc2n[nH]c(=O)c3ccccc23)ccc1F)N1CCN(C(=O)C2CC2)CC1 [Olaparib/AZD2281]
Doxorubicin = compound: COc1cccc2c1C(=O)c1c(O)c3c(c(O)c1C2=O)C[C@@](O)(C(=O)CO)C[C@@H]3O[C@H]1C[C@H](N)[C@H](O)[C@H](C)O1 [Doxorubicin]
ABT-737 = compound: CN(C)CC[C@H](CSc1ccccc1)Nc1ccc(S(=O)(=O)NC(=O)c2ccc(N3CCN(Cc4ccccc4-c4ccc(Cl)cc4)CC3)cc2)cc1[N+](=O)[O-] [ABT-737]
AZD5363 = compound: NC1(C(=O)N[C@@H](CCO)c2ccc(Cl)cc2)CCN(c2nc[nH]c3nccc2-3)CC1 [AZD5363]
Saracatinib/AZD0530 = compound: CN1CCN(CCOc2cc(OC3CCOCC3)c3c(Nc4c(Cl)ccc5c4OCO5)ncnc3c2)CC1 [Saracatinib/AZD0530]
[5] = compound: CC(=O)Nc1cccc(-n2c(=O)n(C3CC3)c(=O)c3c(Nc4ccc(I)cc4F)n(C)c(=O)c(C)c32)c1
Cabozantinib = compound: COc1cc2nccc(Oc3ccc(NC(=O)C4(C(=O)Nc5ccc(F)cc5)CC4)cc3)c2cc1OC [Cabozantinib]
[6] = compound: CO[C@@H](C)Cn1c(=O)n(C)c2cnc3ccc(-c4cncc(C(C)(C)O)c4)cc3c21
Volasertib/BI6727 = compound: CC[C@@H]1C(=O)N(C)c2cnc(Nc3ccc(C(=O)N[C@H]4CC[C@H](N5CCN(CC6CC6)CC5)CC4)cc3OC)nc2N1C(C)C [Volasertib/BI6727]
Ipatasertib/GDC0068 = compound: CC(C)NC[C@@H](C(=O)N1CCN(c2ncnc3c2[C@H](C)C[C@H]3O)CC1)c1ccc(Cl)cc1 [Ipatasertib/GDC0068]
Flavopiridol = compound: CN1CC[C@H](c2c(O)cc(O)c3c(=O)cc(-c4ccccc4Cl)oc23)[C@H](O)C1 [Flavopiridol]
AZD1775 = compound: C=CCn1c(=O)c2cnc(Nc3ccc(N4CCN(C)CC4)cc3)nc2n1-c1cccc(C(C)(C)O)n1 [AZD1775]
SHP099 = compound: CC1(CCN(CC1)C2=CN=C(C(=N2)N)C3=C(C(=CC=C3)Cl)Cl)N [SHP099]
[7] = compound: COc1ccc2c(c1)[C@]1(C[C@H]1c1ccc3c(/C=C/c4ccc(CN5C[C@@H](C)O[C@@H](C)C5)cc4)n[nH]c3c1)C(=O)N2
Luminespib/NVP-AUY922 = compound: CCNC(=O)c1noc(-c2cc(C(C)C)c(O)cc2O)c1-c1ccc(CN2CCOCC2)cc1 [Luminespib/NVP-AUY922]
BSJ-03-123 = compound: CC(=O)c1c(C)c2cnc(Nc3ccc(N4CCN(CCOCCOCCOCCNC(=O)COc5cccc6c5C(=O)N(C5CCC(=O)NC5=O)C6=O)CC4)cn3)nc2n(C2CCCC2)c1=O [BSJ-03-123]
[8] = compound: CCc1cnn2c(NCc3ccc[n+]([O-])c3)cc(N3CCCC[C@H]3CCO)nc12
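Note: breast cancer and non-malignant breast epithelial cell lines, Deep Dye Drop or Dye Drop imaging, nine half-log doses, GR normalized to time-zero plates and DMSO-only controls.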

Cell Line | GR50, 72 h (THZ1) | GR50, 72 h (LEE011/Ribociclib) | GR50, 72 h (Neratinib/HKI272) | GR50, 72 h (Dasatinib) | GR50, 72 h (Alpelisib/BYL719) | GR50, 72 h [1] | GR50, 72 h (Vorinostat) | GR50, 72 h (AZD7762) | GR50, 72 h [2] | GR50, 72 h [3] | GR50, 72 h (THZ-P1-2) | GR50, 72 h (AZD2014) | GR50, 72 h (Taselisib/GDC0032) | GR50, 72 h [4] | GR50, 72 h (Torin2) | GR50, 72 h (R0-3306) | GR50, 72 h (Olaparib/AZD2281) | GR50, 72 h (Doxorubicin) | GR50, 72 h (ABT-737) | GR50, 72 h (AZD5363) | GR50, 72 h (Saracatinib/AZD0530) | GR50, 72 h [5] | GR50, 72 h (Cabozantinib) | GR50, 72 h [6] | GR50, 72 h (Volasertib/BI6727) | GR50, 72 h (Ipatasertib/GDC0068) | GR50, 72 h (Flavopiridol) | GR50, 72 h (AZD1775) | GR50, 72 h (SHP099) | GR50, 72 h [7] | GR50, 72 h (Luminespib/NVP-AUY922) | GR50, 72 h (BSJ-03-123) | GR50, 72 h [8]
SUM1315 | 0.251 µM | 2.83 µM | 0.0922 µM | 0.0191 µM | 6.46 µM | 0.00376 µM | 1.76 µM | 0.0527 µM | 0.0493 µM | 0.0923 µM | 7.11 µM | 0.0012 µM | 0.516 µM | > 10 µM | 0.015 µM | 2.79 µM | 2.03 µM | 0.0182 µM | 5.96 µM | > 10 µM | 1.39 µM | 0.0211 µM | 4.52 µM | 0.00919 µM | 0.0095 µM | > 10 µM | 0.104 µM | < 0.001 µM | > 10 µM | 0.00184 µM | 0.00486 µM | 2.05 µM | 0.0109 µM
T47D | 0.0293 µM | 0.0057 µM | 0.423 µM | > 10 µM | 0.153 µM | 0.0149 µM | 1.83 µM | 2.37 µM | 0.00428 µM | 0.0275 µM | 2.22 µM | < 0.001 µM | 0.00179 µM | 3.75 µM | 0.00602 µM | 7.12 µM | > 10 µM | 0.00189 µM | > 10 µM | 0.0138 µM | 3.95 µM | > 1 µM | 7.88 µM | < 0.001 µM | 0.0315 µM | 0.136 µM | 0.116 µM | 5.09 µM | > 10 µM | 0.00463 µM | 0.00607 µM | 0.00165 µM | 0.0199 µM
UACC812 | 0.691 µM | 0.0124 µM | 0.00313 µM | 0.00102 µM | 0.588 µM | < 0.001 µM | 1.12 µM | 0.00748 µM | 0.00485 µM | 0.0179 µM | 3.78 µM | < 0.001 µM | 0.0622 µM | 2.01 µM | 0.00356 µM | 5.09 µM | 8.69 µM | 0.00203 µM | 3.73 µM | 8.81 µM | 0.0189 µM | 0.00179 µM | 5.86 µM | < 0.001 µM | 0.00975 µM | 1.02 µM | 0.0813 µM | 3.03 µM | > 10 µM | 0.0127 µM | 0.00518 µM | 0.836 µM | 0.0303 µM
ZR751 | 0.428 µM | 5.42 µM | > 3.16 µM | 0.0343 µM | > 10 µM | > 10 µM | 3.55 µM | 2.29 µM | 0.0666 µM | > 3.16 µM | 8.94 µM | < 0.001 µM | 0.277 µM | > 10 µM | 0.0172 µM | > 10 µM | > 10 µM | 0.0247 µM | > 10 µM | > 10 µM | 3.66 µM | 0.0293 µM | > 10 µM | 0.0135 µM | 0.115 µM | > 10 µM | 0.35 µM | 6.23 µM | > 10 µM | 0.0085 µM | 0.0228 µM | 3.04 µM | 0.035 µM
